Key:
[1] = Photostability test in accordance with ICH Q1B; assay type: physicochemical; conditions: for Stability with respect to light: summary in words of Table 10
Procedure: (Experimental Example 4) Photostability Test
After completion of the test, each sample was removed, its chemical purity was measured by high performance liquid chromatography, and the crystal form was confirmed by x-ray powder analysis.

[2] = Long-term storage stability test (powder stability); assay type: physicochemical
Procedure: (Experimental Example 3) Long-Term Storage Stability Test
(§1) After the end of the storage period, the samples were removed, their chemical purities were measured by high performance liquid chromatography, and the crystal forms were confirmed by x-ray powder analysis.

[3] = Solvent suspension test of crystal form mixture; assay type: physicochemical; conditions: 25° C.
Excerpt: (Experimental Example 1) Solvent Suspension Test of Crystal Form Mixture

[4] = Storage stability test (powder stability); assay type: physicochemical
Procedure: (Experimental Example 2) Storage Stability Test
as §1

human TRPV1 = molecular target: T1, human TRPV1 (Homo sapiens, UniProt Q8NER1); test: Measurement of capsaicin-induced Ca influx in human TRPV1-transformed CHO cell line; assay type: cell-based; conditions: concentration shifting the capsaicin concentration reaction curve to the right by two times; hTRPV1-CHO cells, FDSS-6000
T1 construct: expressed in transfected cells
T1 sequence (Q8NER1 whole entry): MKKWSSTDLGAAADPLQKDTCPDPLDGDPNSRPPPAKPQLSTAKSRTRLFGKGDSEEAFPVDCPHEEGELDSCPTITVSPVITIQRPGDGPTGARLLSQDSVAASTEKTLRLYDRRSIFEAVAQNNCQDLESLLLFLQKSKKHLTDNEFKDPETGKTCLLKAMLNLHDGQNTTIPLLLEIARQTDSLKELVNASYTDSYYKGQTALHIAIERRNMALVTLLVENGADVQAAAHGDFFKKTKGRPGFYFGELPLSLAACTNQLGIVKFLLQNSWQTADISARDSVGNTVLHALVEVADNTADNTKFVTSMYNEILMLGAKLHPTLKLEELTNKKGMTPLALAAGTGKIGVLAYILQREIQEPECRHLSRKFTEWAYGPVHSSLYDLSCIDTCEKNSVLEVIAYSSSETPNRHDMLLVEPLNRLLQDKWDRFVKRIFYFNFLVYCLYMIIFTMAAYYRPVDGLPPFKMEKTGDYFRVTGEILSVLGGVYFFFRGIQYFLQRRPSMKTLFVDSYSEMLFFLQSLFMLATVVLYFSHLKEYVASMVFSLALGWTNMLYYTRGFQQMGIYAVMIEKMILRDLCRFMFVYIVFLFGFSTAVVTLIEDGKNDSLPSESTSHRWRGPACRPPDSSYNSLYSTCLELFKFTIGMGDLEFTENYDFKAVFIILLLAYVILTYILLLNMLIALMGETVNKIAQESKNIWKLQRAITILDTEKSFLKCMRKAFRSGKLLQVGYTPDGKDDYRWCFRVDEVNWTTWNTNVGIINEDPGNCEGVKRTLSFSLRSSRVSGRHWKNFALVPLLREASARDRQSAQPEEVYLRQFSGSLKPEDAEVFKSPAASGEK
Excerpt: (1) Establishment of Human TRPV1-Transformed CHO Cell Line
Human vanilloid receptor 1 (hTRPV1) cDNA was cloned from a human brain. The cloned hTRPV1 cDNA was inserted into a pCAGGS vector, which was then genetically introduced into a CHO-K1 cell line to transform the cells. Clones obtained by limiting dilution were stimulated with capsaicin, and clones with a high responsiveness were selected based on increased Ca concentration. The selected clones were then used for the following experiment.
(2) Measurement of Ca Influx Using FDSS-6000
Human TRPV1-transformed CHO cells were seeded at a density of 40,000 cells per well on a 96-well plate (black walls, transparent bottom/manufactured by Greiner Bio-One International GmbH). […] Changes in intracellular Ca concentration were measured for 3 minutes after capsaicin stimulus (1 nmol/L to 1 μmol/L) with an FDSS-6000 (λex: 480 nm, λem: 540 nm, Hamamatsu Photonics K.K.). The integral values of the respective intracellular Ca concentration increase rates in the medium group and the group treated with the crystal of the invention were calculated, and capsaicin concentration reaction curves were prepared.

[5] = 1ICH (10-day test; 1.2 million lux hours and 200 watt hours/m^2 or more at 25° C.)
[6] = 25° C./60% RH, 6 months, sealed
[7] = 25° C./60% RH, 13 months, sealed
[8] = 25° C./60% RH, 24 months, sealed
[9] = 25° C./60% RH, 36 months, sealed
[10] = 25° C./60% RH, 48 months, sealed

Chemical purity (%) [1, 5]	Crystal form [1, 5]	Chemical purity (%) ([1]; Before test)	Crystal form ([1]; Before test)	Chemical purity (%) ([4]; 25° C./60% RH, 1 month, sealed)	Crystal form ([4]; 25° C./60% RH, 1 month, sealed)	Chemical purity (%) ([4]; 40° C./75% RH, 1 month, sealed)	Crystal form ([4]; 40° C./75% RH, 1 month, sealed)	Chemical purity (%) ([4]; 60° C., 1 month, sealed)	Crystal form ([4]; 60° C., 1 month, sealed)	Chemical purity (%) ([4]; Before test)	Crystal form ([4]; Before test)	SMILES	Stability with respect to light [1]	also measured
>99.9%	Type I crystal	>99.9%	Type I crystal	>99.9%	Type I	>99.9%	Type I	>99.9%	Type I	>99.9%	Type I	O=C(/C=C1\CCOc2cc(C(F)(F)F)ccc21)Nc1cccc2c1C[C@H](O)CC2 [Type I crystal, (E)-2-(7-trifluoromethyl-chroman-4-ylidene)-N-((7R)-7-hydroxy-5,6,7,8-tetrahydronaphthalen-1-yl)acetamide]	extremely high chemical and physical stability	Chemical purity (%) ([2]; 25° C./60% RH, 3 months, sealed): >99.9%; Chemical purity (%) [2, 6]: >99.9%; Crystal form [2, 6]: Type I; Chemical purity (%) [2, 7]: >99.9%; Crystal form [2, 7]: Type I; Chemical purity (%) [2, 8]: >99.9%; Crystal form [2, 8]: Type I; Chemical purity (%) [2, 9]: >99.9%; Crystal form [2, 9]: Type I; Chemical purity (%) [2, 10]: >99.9%; Crystal form [2, 10]: Type I; Chemical purity (%) ([2]; Before test): >99.9%; Crystal form ([2]; Before test): Type I; Moisture absorption ([2]; during the test periods of Experimental Examples 2 and 3): no moisture absorption; Chemical and physical stability ([2]; test periods of Experimental Examples 2 and 3): chemically and physically stable throughout the test period; Thermodynamic stability in suspension [3]: thermodynamically stable in suspension
												O=C(/C=C1\CCOc2cc(C(F)(F)F)ccc21)Nc1cccc2c1C[C@H](O)CC2 [Compound (1), (E)-2-(7-trifluoromethyl-chroman-4-ylidene)-N-((7R)-7-hydroxy-5,6,7,8-tetrahydronaphthalen-1-yl)acetamide]		A2 value (human TRPV1): A (A less than 100 nmol/L)
98.2%	Type II crystal	>99.9%	Type II crystal	>99.9%	Type II	>99.9%	Type II	>99.9%	Type II	>99.9%	Type II	O=C(/C=C1\CCOc2cc(C(F)(F)F)ccc21)Nc1cccc2c1C[C@H](O)CC2 [Type II crystal, (E)-2-(7-trifluoromethyl-chroman-4-ylidene)-N-((7R)-7-hydroxy-5,6,7,8-tetrahydronaphthalen-1-yl)acetamide]	unstable with respect to light	
